Where a chain is given by its changes, count along the chain named. Read-outs that look alike come from different tables or passages of the source.
Columns and labels:
mice = assay: Tail suspension test, immobility time; type: in vivo, mouse; details: 0.3 mg/kg i.p., 1 hour after administration, 6 min suspension
Procedure: 1 hour after administration of compounds, the mice were individually suspended by their tails for 6 minutes, and the average amount of time the mice were immobile was determined. […]

[1] = Plasma protein binding at 10 μM; type: in vitro ADME, human; details: unbound percent ± standard deviation
Procedure: (§1) Plasma protein binding in human plasma, mouse plasma, and rat plasma was determined. Verapamil and warfarin served as positive controls. The results are expressed as unbound percent±standard deviation.

[2] = Plasma protein binding at 10 μM; type: in vitro ADME, rat; details: unbound percent ± standard deviation
Procedure: as §1

mA1AR [3] = target: T1, mA1AR (Mus musculus, UniProt Q60612); assay: Adenosine receptor binding, mA1AR; details: for Binding selectivity for mA1AR: compared to mA3AR; for Ki: (m), read-out: A1AR % inhibition or Ki (converted)
T1 sequence (Q60612 1-326): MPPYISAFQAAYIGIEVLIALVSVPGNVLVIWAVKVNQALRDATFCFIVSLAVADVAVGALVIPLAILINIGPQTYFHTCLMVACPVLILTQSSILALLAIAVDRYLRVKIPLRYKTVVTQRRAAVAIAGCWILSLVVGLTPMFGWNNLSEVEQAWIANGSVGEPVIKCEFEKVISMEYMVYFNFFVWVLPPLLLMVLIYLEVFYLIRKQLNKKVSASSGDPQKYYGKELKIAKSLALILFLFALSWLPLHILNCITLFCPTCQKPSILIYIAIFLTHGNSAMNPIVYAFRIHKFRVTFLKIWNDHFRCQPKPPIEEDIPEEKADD

[4] = Stability in simulated gastric fluid; type: physicochemical; details: pH 1.60, 37° C., after 120 min
wild-type C57BL/6J mice [5] = assay: Locomotor activity by telemetry after ip dosing; type: in vivo, mouse; details: 3 mg/kg ip; average from dosing to 60 min; mean±SD
Procedure: (§2) Compounds were dosed ip. Tb and activity were measured by telemetry and the averages from dosing to 60 min were calculated. […] Data are for the highest dose used and are mean±SD from 3 to 22 mice/group (usually 5-7). P values are unpaired t-Test vs vehicle-treated controls assayed simultaneously. Vehicle data are mean±SD from all (n=83) vehicle treated mice.

wild-type C57BL/6J mice [6] = assay: Hypothermia (Tb by telemetry) after ip dosing; type: in vivo, mouse; details: 3 mg/kg ip; average from dosing to 60 min; mean±SD
Procedure: as §2

mA3AR [7] = target: T2, mA3AR (Mus musculus, UniProt Q61618); assay: Guanine nucleotide ([35S]GTPγS) binding assay; type: biochemical; details: effect of 10 μM test compound as % of 10 μM 16
T2 sequence (Q61618 1-319): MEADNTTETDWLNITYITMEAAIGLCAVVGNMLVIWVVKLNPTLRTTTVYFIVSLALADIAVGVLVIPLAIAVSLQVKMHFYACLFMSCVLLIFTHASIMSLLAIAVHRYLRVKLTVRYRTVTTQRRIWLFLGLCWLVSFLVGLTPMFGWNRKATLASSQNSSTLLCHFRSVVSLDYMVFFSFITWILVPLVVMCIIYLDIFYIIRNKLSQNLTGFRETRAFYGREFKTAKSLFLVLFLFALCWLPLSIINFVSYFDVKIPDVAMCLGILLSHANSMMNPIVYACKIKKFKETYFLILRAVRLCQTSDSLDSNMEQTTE
Procedure: (§3) cLogP was calculated using ChemDraw Professional, v. 16.0. Binding selectivity for mA1Ar is expressed in terms of fold, compared to mA3AR (Data from Table 1).

mA1AR [8] = target: T1, mA1AR; assay: Guanine nucleotide ([35S]GTPγS) binding assay; type: biochemical
Procedure: as §3

[9] = Plasma protein binding at 10 μM; type: in vitro ADME, mouse; details: unbound percent ± standard deviation
Procedure: as §1

rA3AR = rA3AR (Rattus norvegicus, UniProt P28647); assay: Adenosine receptor binding, rA3AR; details: (r), read-out: A3AR % inhibition or Ki (converted)
rA2AAR = rA2AAR (Rattus norvegicus, UniProt P30543); assay: Adenosine receptor binding, rA2AAR; details: (r); values without % sign (Ki); read-out: A2AAR % inhibition (converted)
hA3AR = target: T3, hA3AR (Homo sapiens, UniProt P0DMS8); assay: Radioligand binding in membranes of CHO cells expressing hA3AR
T3 construct: expressed in transfected cells; host or cells: CHO
T3 sequence (P0DMS8 1-318): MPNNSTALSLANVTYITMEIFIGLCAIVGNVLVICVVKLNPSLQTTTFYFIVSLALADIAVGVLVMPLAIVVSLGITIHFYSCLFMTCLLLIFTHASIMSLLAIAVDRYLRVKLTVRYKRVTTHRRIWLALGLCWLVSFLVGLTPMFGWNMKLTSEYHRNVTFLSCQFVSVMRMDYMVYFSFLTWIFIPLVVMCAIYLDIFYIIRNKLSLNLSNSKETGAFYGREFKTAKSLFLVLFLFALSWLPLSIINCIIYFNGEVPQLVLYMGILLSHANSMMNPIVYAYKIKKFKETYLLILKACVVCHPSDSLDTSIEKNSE

mA3AR [10] = target: T2, mA3AR; assay: Adenosine receptor binding, mA3AR; details: (m); Ki; read-out: A3AR % inhibition or Ki (converted)
rA1AR = target: T4, rA1AR (Rattus norvegicus, UniProt P25099); assay: Adenosine receptor binding, rA1AR; details: (r), read-out: A1AR % inhibition or Ki (converted)
T4 sequence (P25099 1-326): T1 sequence (Q60612 1-326) with E151V, A155D, I157R, E316D, I319L, D325E

hA2AAR = target: T5, hA2AAR (Homo sapiens, UniProt P29274); assay: Radioligand binding in membranes of HEK293 cells expressing hA2AAR; details: read-out: A2AAR % inhibition; for Ki: (h), values without % sign (Ki)
T5 construct: expressed in transfected cells; host or cells: HEK293

hA1AR = target: T6, hA1AR (Homo sapiens, UniProt P30542); assay: Radioligand binding in membranes of CHO cells expressing hA1AR, [3H]N6-R-phenylisopropyladenosine; details: (h); Ki; read-out: A1AR % inhibition or Ki
T6 construct: expressed in transfected cells; host or cells: CHO
T6 sequence (P30542 1-326): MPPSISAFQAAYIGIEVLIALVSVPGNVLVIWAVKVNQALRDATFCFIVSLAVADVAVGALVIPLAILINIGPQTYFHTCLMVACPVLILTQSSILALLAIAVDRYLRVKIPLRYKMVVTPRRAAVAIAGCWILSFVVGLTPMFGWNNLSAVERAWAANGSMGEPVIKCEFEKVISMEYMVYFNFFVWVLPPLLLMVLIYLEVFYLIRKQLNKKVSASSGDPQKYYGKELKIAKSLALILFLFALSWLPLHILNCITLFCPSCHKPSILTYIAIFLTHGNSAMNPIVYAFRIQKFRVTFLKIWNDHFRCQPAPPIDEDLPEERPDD

[11] = target: dopamine transporter (DAT) (Homo sapiens, UniProt Q01959); assay: Off-target interaction determined by the PDSP; type: binding; details: read-out: Off-target, receptor (h, unless noted) (Ki, μM): DAT
[12] = target: norepinephrine transporter (NET) (Homo sapiens, UniProt P23975); assay: Off-target interaction determined by the PDSP; type: binding; details: read-out: Off-target, receptor (h, unless noted) (Ki, μM): NET
sigma receptor σ2 = sigma receptor σ2 (UniProt Q5BJF2); assay: Off-target interaction determined by the PDSP; type: binding, human; details: read-out: Off-target, receptor (h, unless noted) (Ki, μM): σ2
histamine receptor H1 = histamine receptor H1 (Homo sapiens, UniProt P35367); assay: Off-target interaction determined by the PDSP; type: binding; details: read-out: Off-target, receptor (h, unless noted) (Ki, μM): H1
serotonin receptor 5HT2B = serotonin receptor 5HT2B (Homo sapiens, UniProt P41595); assay: Off-target interaction determined by the PDSP; type: binding; details: read-out: Off-target, receptor (h, unless noted) (Ki, μM): 5HT2B
serotonin receptor 5HT2C = target: T7, serotonin receptor 5HT2C (Homo sapiens, UniProt P28335); assay: Off-target interaction determined by the PDSP; type: binding; details: read-out: Off-target, receptor (h, unless noted) (Ki, μM): 5HT2C
T7 sequence (P28335 33-458): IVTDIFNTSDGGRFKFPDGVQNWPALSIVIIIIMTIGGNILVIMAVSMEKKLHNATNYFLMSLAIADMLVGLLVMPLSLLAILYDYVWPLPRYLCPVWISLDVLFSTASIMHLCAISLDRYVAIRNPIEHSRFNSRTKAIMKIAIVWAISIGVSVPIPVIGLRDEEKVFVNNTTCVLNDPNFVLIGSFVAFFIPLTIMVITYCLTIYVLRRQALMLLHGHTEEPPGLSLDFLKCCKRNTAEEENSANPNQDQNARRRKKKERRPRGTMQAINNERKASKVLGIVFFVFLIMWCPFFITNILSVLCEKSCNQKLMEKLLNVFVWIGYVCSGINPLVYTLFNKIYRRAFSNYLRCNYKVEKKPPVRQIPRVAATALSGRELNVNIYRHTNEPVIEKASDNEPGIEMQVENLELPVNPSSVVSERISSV

[13] = target: rat brain benzodiazepine receptors (BZP); assay: Off-target interaction determined by the PDSP; type: binding; details: read-out: Off-target, receptor (h, unless noted) (Ki, μM): BZP (r)
sigma receptor σ1 = sigma receptor σ1 (Homo sapiens, UniProt Q99720); assay: Off-target interaction determined by the PDSP; type: binding; details: read-out: Off-target, receptor (h, unless noted) (Ki, μM): σ1
Chain of sigma receptor σ1 (Q99720 whole entry): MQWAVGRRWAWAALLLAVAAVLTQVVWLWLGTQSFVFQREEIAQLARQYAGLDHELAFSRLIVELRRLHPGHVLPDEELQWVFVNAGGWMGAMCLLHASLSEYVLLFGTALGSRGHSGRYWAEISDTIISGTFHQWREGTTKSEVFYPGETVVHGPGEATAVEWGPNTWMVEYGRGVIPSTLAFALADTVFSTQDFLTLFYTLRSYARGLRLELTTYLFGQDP

T5 sequence (P29274 whole entry): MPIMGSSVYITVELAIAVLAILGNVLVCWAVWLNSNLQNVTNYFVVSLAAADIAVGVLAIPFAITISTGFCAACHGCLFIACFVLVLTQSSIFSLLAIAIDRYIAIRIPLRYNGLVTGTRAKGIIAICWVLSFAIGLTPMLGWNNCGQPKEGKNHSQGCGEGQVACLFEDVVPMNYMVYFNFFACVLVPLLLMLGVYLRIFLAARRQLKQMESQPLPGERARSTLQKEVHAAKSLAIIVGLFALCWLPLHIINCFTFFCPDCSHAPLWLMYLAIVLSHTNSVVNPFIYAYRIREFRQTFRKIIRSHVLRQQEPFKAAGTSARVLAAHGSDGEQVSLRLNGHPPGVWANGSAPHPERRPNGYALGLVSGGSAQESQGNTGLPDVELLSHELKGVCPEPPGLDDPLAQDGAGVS
Chain of rA2AAR (P30543 whole entry): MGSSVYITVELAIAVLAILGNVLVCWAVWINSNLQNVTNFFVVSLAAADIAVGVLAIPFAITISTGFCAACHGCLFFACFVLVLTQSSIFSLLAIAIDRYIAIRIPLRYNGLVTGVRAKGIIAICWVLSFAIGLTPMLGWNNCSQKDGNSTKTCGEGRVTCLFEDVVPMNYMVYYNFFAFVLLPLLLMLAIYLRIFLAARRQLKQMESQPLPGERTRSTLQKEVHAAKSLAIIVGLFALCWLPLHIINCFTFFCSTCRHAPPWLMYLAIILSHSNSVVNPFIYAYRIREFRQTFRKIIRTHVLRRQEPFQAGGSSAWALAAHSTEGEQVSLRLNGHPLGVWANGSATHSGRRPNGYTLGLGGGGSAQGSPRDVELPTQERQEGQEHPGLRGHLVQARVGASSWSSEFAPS
Chain of dopamine transporter (DAT) (Q01959 whole entry): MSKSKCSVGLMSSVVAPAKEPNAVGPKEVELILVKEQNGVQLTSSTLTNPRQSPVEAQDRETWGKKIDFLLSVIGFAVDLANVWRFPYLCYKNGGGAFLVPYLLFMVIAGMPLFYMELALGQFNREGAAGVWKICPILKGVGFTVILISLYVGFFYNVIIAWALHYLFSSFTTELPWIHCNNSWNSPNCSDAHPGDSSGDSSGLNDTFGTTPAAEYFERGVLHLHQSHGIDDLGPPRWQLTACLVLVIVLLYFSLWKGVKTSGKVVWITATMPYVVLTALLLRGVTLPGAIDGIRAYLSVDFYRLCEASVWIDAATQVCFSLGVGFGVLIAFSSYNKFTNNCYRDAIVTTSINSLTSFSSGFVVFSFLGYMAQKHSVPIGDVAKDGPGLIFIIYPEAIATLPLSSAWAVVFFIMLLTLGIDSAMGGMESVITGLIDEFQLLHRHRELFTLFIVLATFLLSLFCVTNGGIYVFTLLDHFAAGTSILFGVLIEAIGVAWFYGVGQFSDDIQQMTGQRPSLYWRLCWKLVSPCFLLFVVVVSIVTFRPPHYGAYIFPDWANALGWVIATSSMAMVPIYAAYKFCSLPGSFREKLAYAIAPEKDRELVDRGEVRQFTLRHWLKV
Chain of serotonin receptor 5HT2B (P41595 whole entry): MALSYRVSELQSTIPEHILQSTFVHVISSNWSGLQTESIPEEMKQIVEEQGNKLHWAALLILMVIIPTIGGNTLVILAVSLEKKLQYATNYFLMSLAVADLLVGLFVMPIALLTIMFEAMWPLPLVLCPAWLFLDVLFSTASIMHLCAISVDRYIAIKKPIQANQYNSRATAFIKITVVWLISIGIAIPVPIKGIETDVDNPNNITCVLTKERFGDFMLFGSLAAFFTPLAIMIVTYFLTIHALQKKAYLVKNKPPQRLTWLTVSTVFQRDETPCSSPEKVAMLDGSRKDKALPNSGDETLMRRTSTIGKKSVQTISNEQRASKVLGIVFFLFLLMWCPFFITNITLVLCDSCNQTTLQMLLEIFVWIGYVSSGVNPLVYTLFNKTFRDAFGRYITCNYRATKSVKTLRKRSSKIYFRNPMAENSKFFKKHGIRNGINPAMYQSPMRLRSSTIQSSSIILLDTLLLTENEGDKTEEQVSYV
Chain of histamine receptor H1 (P35367 whole entry): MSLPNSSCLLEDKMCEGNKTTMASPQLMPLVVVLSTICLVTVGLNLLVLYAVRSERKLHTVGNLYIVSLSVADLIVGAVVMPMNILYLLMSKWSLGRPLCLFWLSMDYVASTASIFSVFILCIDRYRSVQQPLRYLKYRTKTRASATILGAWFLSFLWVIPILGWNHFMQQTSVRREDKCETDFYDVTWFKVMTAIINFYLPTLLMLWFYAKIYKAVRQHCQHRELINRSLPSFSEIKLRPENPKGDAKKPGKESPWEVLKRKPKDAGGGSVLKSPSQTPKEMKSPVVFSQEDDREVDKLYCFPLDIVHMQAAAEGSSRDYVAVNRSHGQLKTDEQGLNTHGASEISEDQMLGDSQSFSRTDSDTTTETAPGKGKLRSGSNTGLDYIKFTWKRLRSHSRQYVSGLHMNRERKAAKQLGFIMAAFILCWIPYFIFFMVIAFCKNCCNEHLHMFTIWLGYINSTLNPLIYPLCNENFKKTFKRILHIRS
Chain of rA3AR (P28647 whole entry): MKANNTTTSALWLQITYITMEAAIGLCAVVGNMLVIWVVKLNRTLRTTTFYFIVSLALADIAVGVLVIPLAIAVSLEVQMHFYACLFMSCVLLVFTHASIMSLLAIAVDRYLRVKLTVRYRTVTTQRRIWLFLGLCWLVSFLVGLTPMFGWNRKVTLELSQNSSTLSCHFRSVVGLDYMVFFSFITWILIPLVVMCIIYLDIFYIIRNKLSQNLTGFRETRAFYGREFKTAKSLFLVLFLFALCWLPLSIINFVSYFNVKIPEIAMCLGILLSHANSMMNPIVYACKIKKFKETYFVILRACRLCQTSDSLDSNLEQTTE
Chain of norepinephrine transporter (NET) (P23975 whole entry): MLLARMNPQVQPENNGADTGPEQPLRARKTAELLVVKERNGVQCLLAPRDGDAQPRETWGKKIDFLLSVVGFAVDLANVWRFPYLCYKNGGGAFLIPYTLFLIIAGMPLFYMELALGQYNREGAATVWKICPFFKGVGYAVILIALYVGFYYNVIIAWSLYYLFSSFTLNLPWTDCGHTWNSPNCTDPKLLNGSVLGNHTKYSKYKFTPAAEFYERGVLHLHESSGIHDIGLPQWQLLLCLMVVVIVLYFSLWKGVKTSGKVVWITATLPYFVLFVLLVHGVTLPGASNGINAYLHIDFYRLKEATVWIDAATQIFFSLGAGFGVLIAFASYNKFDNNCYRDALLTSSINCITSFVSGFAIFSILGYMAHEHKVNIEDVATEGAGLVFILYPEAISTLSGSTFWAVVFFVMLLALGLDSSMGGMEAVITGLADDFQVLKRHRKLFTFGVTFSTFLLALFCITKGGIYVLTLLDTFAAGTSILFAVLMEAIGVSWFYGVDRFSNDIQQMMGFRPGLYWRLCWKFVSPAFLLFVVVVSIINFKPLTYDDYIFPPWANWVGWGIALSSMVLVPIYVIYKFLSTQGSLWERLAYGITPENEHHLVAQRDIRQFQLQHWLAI

SMILES | human, % free [1] [%] | rat, % free [2] [%] | Binding selectivity for mA1AR (mA1AR [3]) | Activity (counts) (wild-type C57BL/6J mice [5]) | Tb (° C.) (wild-type C57BL/6J mice [6]) [°C] | Emax at 10 µM (mA3AR [7]) [%] | Emax at 10 µM (mA1AR [8]) [%] | mouse, % free [9] [%] | Ki (mA1AR [3]) [nM] | Ki (rA2AAR) [nM] | Ki (hA3AR) [nM] | Ki (mA3AR [10]) [nM] | Ki (hA2AAR) [nM] | Ki (hA1AR) [nM] | Ki (sigma receptor σ2) [µM] | also measured
OC[C@H]1O[C@@H](n2cnc3c(NC(C4CCC4)C4CCC4)nc(Cl)nc32)[C@H](O)C1O (stereo in doubt) [Compound 12, (2R,3R,4R,5R)-2-(2-Chloro-6-((dicyclobutylmethyl)amino)-9H-purin-9-yl)-5-(hydroxymethyl)tetrahydrofuran-3,4-diol] | 5.81 ± 0.39 | 4.64 ± 0.06 | (1000) fold | 13.5 ± 3.5 | 35.5 ± 0.8 | 63 ± 5 | 90 ± 19 | 4.74 ± 0.67 | – | – | – | – | – | – | – | average immobility time relative to mice treated with 10 mg/kg of fluoxetine (mice): approximately ⅔; average immobility time relative to the control group of mice (mice): approximately ½; initial amount present in simulated gastric fluid [4]: 100%
O[C@@H]1[C@H](O)[C@@H](CCl)O[C@H]1n1cnc2c(NC3CC4CCC3C4)ncnc21 (some centres unmarked) [Compound 3, reference compound] | – | – | – | – | – | – | – | – | 0.14 | 477 | 915 ± 299 | 424 | > 10000 | – | – | Ki (rA3AR): 282 nM; Ki (rA1AR): 0.34 nM
OC[C@H]1O[C@@H](n2cnc3c(NC(C4CC4)C4CC4)ncnc32)[C@H](O)[C@@H]1O [Compound 8] | – | – | – | – | – | – | – | – | – | 1370 | 41.3 ± 5.3 | – | 1470 ± 380 | 0.85 ± 0.27 | – | –
OC[C@H]1O[C@@H](n2cnc3c(NC(C4CCC4)C4CCC4)ncnc32)[C@H](O)[C@@H]1O [Compound 9, (2R,3R,4R,5R)-2-(6-((Dicyclobutylmethyl)amino)-9H-purin-9-yl)-5-(hydroxymethyl)tetrahydrofuran-3,4-diol] | – | – | – | – | – | – | – | – | – | – | – | 897 | 3550 ± 440 | 2.14 ± 0.52 | – | Ki [11]: 1.78 µM; Ki [12]: 4.82 µM
Nc1ncnc2c1ncn2[C@@H]1O[C@H](C(=O)NC2CC2)[C@@H](O)[C@H]1O [Compound 17, reference compound] | – | – | – | – | – | – | – | – | – | – | – | – | 50 ± 10 | 1.9 | 4.35 | Ki (hA3AR; (h), Ki, read-out: A3AR % inhibition or Ki): 180 ± 50 nM; Ki (histamine receptor H1): 7.88 µM
OC[C@@]12C[C@@H]1[C@@H](n1cnc3c(NC(C4CCC4)C4CCC4)ncnc31)[C@H](O)[C@@H]2O [Compound 24, (1R,2R,3S,4R,5S)-4-(6-((Dicyclobutylmethyl)amino)-9H-purin-9-yl)-1-(hydroxymethyl)bicyclo[3.1.0]hexane-2,3-diol] | 14.6 ± 1.3 | 17.8 ± 1.2 | (1730) fold | 18.1 ± 6.8 | 36.2 ± 0.4 | 92 ± 3 | 97 ± 11 | 27.5 ± 1.7 | 0.53 | – | – | 918 | – | 22.7 ± 3 | 0.753 | inhibition at 10 µM (hA3AR; read-out: A3AR % inhibition or Ki): 51 ± 6%; Ki (serotonin receptor 5HT2B): 0.214 µM; Ki (serotonin receptor 5HT2C): 1.32 µM; Ki [13]: 4.08 µM; inhibition at 10 µM (hA2AAR): 34 ± 1%; Ki (sigma receptor σ1): 1.79 µM

— patent US12378248B2 (The United States of America, as represented by the …, priority 2018, dated 2025)
